# Source: PMC10716780, “The multistep oxidation of cholesterol to pregnenolone by human cytochrome P450 11A1 is highly processive” (The Journal of Biological Chemistry, 2023)
# “Also recorded” adds a separate entry of the source. Like-named read-outs stand apart in the source and are kept apart here.
# Columns and labels:
# human P450 11A1 [1] = target: T1, human P450 11A1 (Homo sapiens, UniProt P05108); experiment: Steady-state spectral (type I) binding titration, Kd determination; conditions: up to 1 mM
# T1 construct: M A S T R S P R P F N E I P S P G D N; Met-Ala (N-terminal start residues in place of the transit peptide and Ile40) (N); made in house; host or cells: E. coli C41(DE3) with GroES/GroEL, vector pET23C(+)
# T1 sequence (P05108 41-521 limits assumed): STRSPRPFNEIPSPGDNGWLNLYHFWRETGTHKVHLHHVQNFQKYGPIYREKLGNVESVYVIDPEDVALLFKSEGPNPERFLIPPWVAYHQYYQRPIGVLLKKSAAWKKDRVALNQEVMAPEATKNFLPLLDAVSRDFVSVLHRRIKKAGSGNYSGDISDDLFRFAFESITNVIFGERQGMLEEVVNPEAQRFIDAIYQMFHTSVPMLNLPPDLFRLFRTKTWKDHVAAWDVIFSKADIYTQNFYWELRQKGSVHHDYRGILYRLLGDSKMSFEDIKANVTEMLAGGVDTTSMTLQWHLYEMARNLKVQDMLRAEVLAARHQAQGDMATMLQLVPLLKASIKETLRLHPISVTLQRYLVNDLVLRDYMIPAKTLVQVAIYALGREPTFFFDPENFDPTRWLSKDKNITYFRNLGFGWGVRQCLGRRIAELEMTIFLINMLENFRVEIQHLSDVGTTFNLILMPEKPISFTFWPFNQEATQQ
# Procedure: Ligand binding constants were determined from the low-to high-spin (hypsochromic) spectral transition that occurs at the P450 heme as substrate entering the active site replaces water as the sixth axial heme ligand. […] As a result, we subsequently measured koff values of the P450-sterol complexes, which were consistent with the low Kd values observed (see below). Binding titrations were repeated in the presence of Adx (1 M equivalent, Fig. 6), although no significant effect was observed, even when Adx was added in excess (10-fold with cholesterol as the substrate, data not shown).
# Spectra were recorded using either an OLIS-Cary 14 or OLIS-Aminco DW2a instrument (On-Line Instrument Systems) in the split-beam mode. The OLIS-Cary 14 instrument was used in the P450 11A1 titrations with a 10-cm cell (Starna Cells, catalog no. 34-Q-100, volume 25 ml).
# Kd values were determined by difference spectroscopy as previously reported ([33], [43]) but with some modifications. Briefly, a long-path quartz cuvette (10 cm, 25 ml) containing P450 11A1 (0.1 μM, in 100 mM potassium phosphate buffer (pH 7.4)) was prepared and a baseline was recorded in an OLIS-Cary 14 spectrophotometer. Where indicated, the redox partner Adx was added in equimolar concentration (0.1 μM) to P450. Sterol solutions (in 45% HPCD, w/v) were added to the cuvette, the contents of the cuvette were inverted to mix, and a spectrum was recorded (350–500 nm) after each addition. The total volume added to each cuvette was kept ≤2% (v/v, 0.25 ml) in the assay. The maximum absorbance difference (usually ΔA390−A418) was plotted against the total sterol concentration, and the data were fit to a quadratic equation in GraphPad Prism software (GraphPad, https://www.graphpad.com) to estimate the dissociation constant (Kd). A quadratic equation was used to correct the ligand concentration for the enzyme-bound concentration (used as Y=B+A/2∗1/E∗((Kd+E+X)−(Kd+E+X)^2−(4∗E∗X)) (or Y = B + (A/2)∗(1/E)∗((Kd + E + X)-sqrt((Kd + E + X)∧2 -(4∗E∗X)) in Prism software), where E = enzyme concentration, Kd = dissociation constant, and X = […]).
# human P450 11A1 [2] = target: T2, human P450 11A1 (Homo sapiens, UniProt P05108); experiment: Effect of Tween 20 and lipids on P450 11A1 catalytic activity (cholesterol to pregnenolone); conditions: for effect on P450 11A1 catalytic activity: 50 μM cholesterol, 0.25 μM P450 11A1, lipids 30 μM phospholipid
# T2 sequence (P05108 41-521 limits assumed): T1 sequence (P05108 41-521 limits assumed)
# T2 sequence (P00257 59-186 partner): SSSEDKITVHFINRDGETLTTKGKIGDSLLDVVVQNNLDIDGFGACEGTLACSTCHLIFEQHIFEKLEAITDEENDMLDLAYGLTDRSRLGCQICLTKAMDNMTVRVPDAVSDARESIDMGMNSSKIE
# Procedure: The substrate cholesterol and its 22R-OH and 20R,22R-(OH)2 products were delivered in 2-hydroxypropyl-β-cyclodextrin (HPCD) ([36]) in assays, circumventing the need to use any detergents or organic solvents.
# Reactions were run in triplicate and the conversion of cholesterol to pregnenolone was calculated and plotted (nmol pregnenolone formed min^−1 (nmol P450)^−1). (Note: These assays were done with P450 11A1 purified in the absence of Tween 20.). AdR, adrenodoxin reductase; Adx, adrenodoxin; P450, cytochrome P450.
# Reactions were run in triplicate and the conversion of cholesterol to pregnenolone was calculated and plotted (nmol pregnenolone formed min^−1 (nmol P450)^−1). AdR, adrenodoxin reductase; Adx, adrenodoxin; P450, cytochrome P450.
# Sterol dilutions were performed in HPCD to ensure that the HPCD composition was equal throughout all incubations (final 4.5% w/v). The reaction mixture was split between vials (425 μl in each), and reactions were preincubated (37 °C, 5 min) prior to initiation (75 μl) with an NADPH-generating system (0.5 mM NADP^+, 10 mM glucose 6-phosphate, and 2 μg ml^−1 glucose 6-phosphate dehydrogenase) ([61]). Reactions (5 min) were terminated by extraction into CH2Cl2 (2 ml) and transferred to an ice bath. After the experiment was complete, the quenched reactions were subjected to centrifugation (10^3g, 5 min, 23 °C) to separate layers, the organic (bottom) layer of each sample was removed (1.6 ml) to fresh glass vials, and the samples were brought to dryness under a stream of nitrogen.
# P450 11A1 (CYP11A1) = target: T3, P450 11A1 (CYP11A1) (Homo sapiens, UniProt P05108); experiment: Kinetic isotope effect assay, disappearance of d0- and d3-cholesterol under single-turnover conditions; type: biochemical; conditions: human, pH 7.4; 5 μM P450, 5 μM sterol, low Adx single-turnover; read-out: sterol half-life (t1/2) (converted)
# T3 construct: M A S T R S P R P F N E I P S P G D N; Met-Ala (N-terminal start residues in place of the transit peptide and Ile40) (N); made in house; host or cells: E. coli (P450 11A1 in C41(DE3); Adx and AdR in E. coli)
# T3 sequence (P05108 41-521 limits assumed): T1 sequence (P05108 41-521 limits assumed)
# T3 sequence (P00257 59-186 partner): T2 sequence (P00257 59-186 partner)
# Procedure: (§1) P450 11A1 incubations were performed under (low Adx) single-turnover conditions (5 μM P450, 5 μM cholesterol; see Experimental procedures) with d0- (authentic, unlabeled) and d3-cholesterol, and the disappearance of each was monitored by LC-atmospheric pressure chemical ionization-MS (m/z 369.3516 and 372.3705, respectively). In theory, if C-H bond breaking were rate-limiting in the initial hydroxylation then the rate of d3-cholesterol consumption would be slower relative to the d0 compound due to the increased strength of a C-D bond.
# The kinetic isotope experiment was designed similarly to the benchtop experiment described above, but with some modifications. P450 11A1 (5 μM) was reconstituted with the redox partners AdR (10 μM) and Adx (5 μM) on ice (10 min) prior to dilution in potassium Hepes (50 mM, pH 7.4) and H2O and addition of d3-cholesterol substrate (5 μM). […]
# Samples (held at 4 °C) were injected (10 μl) using a Waters Acquity UPLC system on a Acquity BEH octadecylsilane (C18) 2.1 mm × 50 mm (1.7 μm) UPLC column (held at 25 °C) with a flow rate of 0.5 ml min^−1 using an isocratic mobile phase of CH3CN (only). The column eluate was subjected to atmospheric pressure chemical ionization and analyzed using a Thermo Fisher Scientific LTQ XL Orbitrap mass spectrometer instrument operating in positive mode, scanning from m/z 100 to 500, with a resolution setting of 120,000. […]
# human P450 11A1 [3] = target: T2, human P450 11A1; experiment: as above; type: biochemical; set-up: M A S T R S P R P F N E I P S P G D N; Met-Ala (N-terminal start residues in place of the transit peptide and Ile40) (N); made in house; host or cells: E. coli (P450 11A1 in C41(DE3); Adx and AdR in E. coli); conditions: for kinetic isotope effect: C-22 hydroxylation, single-turnover
# Procedure: as §1
# The kinetic isotope experiment was designed similarly to the benchtop experiment described above, but with some modifications. P450 11A1 (5 μM) was reconstituted with the redox partners AdR (10 μM) and Adx (5 μM) on ice (10 min) prior to dilution in potassium Hepes (50 mM, pH 7.4) and H2O and addition of d3-cholesterol substrate (5 μM). The mixture was preincubated (5 min) prior to initiation with NADPH (2.5 mM, from 25 mM in potassium Hepes (50 mM, pH 7.4)) thus bringing all components to their desired final concentrations. After completing the desired incubation time, an aliquot (500 μl) was removed from the incubation and added to vials containing CH2Cl2 (5 ml) and the vials were mixed with a vortex device and placed on ice. The quenched reactions were centrifuged (10^3g, 5 min, 23 °C) to separate layers, and the organic (bottom) layers were removed (4 ml) and transferred to fresh glass vials. The extraction process was repeated and the two extracts (2 × 4 ml) from each sample were combined to maximize product recovery. Samples (8 ml) were brought to dryness under a stream of nitrogen, and the dried residues were dissolved in CH3OH (25 μl) and transferred to autosampler vials for analysis.
# Samples (held at 4 °C) were injected (10 μl) using a Waters Acquity UPLC system on a Acquity BEH octadecylsilane (C18) 2.1 mm × 50 mm (1.7 μm) UPLC column (held at 25 °C) with a flow rate of 0.5 ml min^−1 using an isocratic mobile phase of CH3CN (only). The column eluate was subjected to atmospheric pressure chemical ionization and analyzed using a Thermo Fisher Scientific LTQ XL Orbitrap mass spectrometer instrument operating in positive mode, scanning from m/z 100 to 500, with a resolution setting of 120,000. Data were processed using Xcalibur QualBrowser (Thermo Fisher Scientific) software (version 2.0.7; https://www.thermofishcer.com/order/catalog/product/OPTON).
# human P450 11A1 [4] = target: T1, human P450 11A1; experiment: Stopped-flow ketoconazole trap, koff and binding rate measurements
# Procedure: Interaction of the azole nitrogen atom with the P450 heme produces a bathochromic (“type II”) spectral shift (to ∼430 nm)—an inverse effect of the binding of substrate.
# Measurement of kon rate(s) was not performed because the sterols are delivered in a solution of HPCD, from which the dissociation rate is not known.
# Determinations of koff rates were performed as previously described ([33]).
molecule,measurement,setting,value
CC(C)CCC=O [4-methylpentanal],spectral shift with P450 11A1,human P450 11A1 [1],did not induce a spectral shift
CCCCCCCCCCCC(=O)OC[C@H](COP(=O)([O-])OCC[N+](C)(C)C)OC(=O)CCCCCCCCCCC [L-α-dilauroyl-sn-glycero-3-phosphocholine],effect on P450 11A1 catalytic activity,human P450 11A1 [2],not enhanced
CCCCCCCC/C=C\CCCCCCCC(=O)OC[C@H](COP(=O)([O-])OCC[N+](C)(C)C)OC(=O)CCCCCCC/C=C\CCCCCCCC [L-α-dioleyl-sn-glycero-3-phosphocholine],effect on P450 11A1 catalytic activity,human P450 11A1 [2],not enhanced
"[2H]C([2H])(CCC(C)C)[C@@]([2H])(C)[C@H]1CC[C@H]2[C@@H]3CC=C4C[C@@H](O)CC[C@]4(C)[C@H]3CC[C@@]21C [d3-cholesterol, (20R)-Cholest-5-ene-20,22,22-d3-3β-ol]",half-life at 5 μM,P450 11A1 (CYP11A1),22 s
same,rate of disappearance,"human P450 11A1 [3]; 5 μM P450, 5 μM sterol, exponential decay fit",0.032 s⁻¹
same,kinetic isotope effect,human P450 11A1 [3],did not observe a kinetic isotope effect
same,kinetic isotope effect,human P450 11A1 [3]; listed as d3-Cholesterol,no kinetic deuterium isotope effect
"CC(=O)N1CCN(c2ccc(OCC3COC(Cn4ccnc4)(c4ccc(Cl)cc4Cl)O3)cc2)CC1 (centres unmarked) [ketoconazole, reference compound]",observed rate of ketoconazole binding (ΔA430),"human P450 11A1 [4]; 20 μM ketoconazole mixed with 2 μM P450 11A1, equal volumes, 23 °C",5.3 s⁻¹
same,kon,"human P450 11A1 [4]; read-out: fast phase of biexponential fit (ketoconazole kon), cholesterol data, trap experiment with P450-cholesterol complex",710000 M⁻¹ s⁻¹
same,kon,"human P450 11A1 [4]; read-out: fast phase of biexponential fit (ketoconazole kon), pregnenolone data, trap experiment with P450-pregnenolone complex",790000 M⁻¹ s⁻¹
same,kon,"human P450 11A1 [4]; read-out: rate of ketoconazole binding to unliganded P450 11A1 (kon), stopped-flow, unliganded enzyme",≥ 500000 M⁻¹ s⁻¹
Tween 20,concentrations found inhibitory,"human P450 11A1 [2]; 0.25 μM P450 11A1, 50 μM cholesterol, 40-fold Adx",> 0.008 % (w/v)
same,effect on P450 11A1 catalytic activity,human P450 11A1 [2],inhibitory; also recorded: inhibited; also recorded: strongly inhibitory; also recorded: inhibits the enzyme
cardiolipin,effect on P450 11A1 catalytic activity,human P450 11A1 [2],inhibit
